Structures can show the parent of a compound that is named as a salt.
What was measured:
Experiment in all cases: In vitro MMP inhibition, IC50 determination (fluorogenic substrate I)
Format in all cases: biochemical
Human recombinant MMP-14 = target: T1, Human recombinant MMP-14 (Homo sapiens, UniProt P50281)
T1 construct: The catalytic domain enzyme was expressed in E. coli inclusion bodies, solubilized in urea; made in house
Outline: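 Catalytic-domain MMP-14, expressed in E. coli and refolded, activated with APMA or trypsin; compounds incubated at room temperature with 4 μM fluorogenic substrate I (MCA-PLGL-Dpa-AR-NH2) in Tris/NaCl/CaCl2 buffer, pH 7.5. Fluorescence at ex 328/em 415 nm; IC50 from loss of fluorescence versus inhibitor concentration.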

Human recombinant MMP-9 = target: T2, Human recombinant MMP-9 (Homo sapiens, UniProt P14780)
T2 construct: made in house; host or cells: MMP-9-transfected HT1080 cells (spent media)
T2 sequence (P14780 107-707 limits assumed): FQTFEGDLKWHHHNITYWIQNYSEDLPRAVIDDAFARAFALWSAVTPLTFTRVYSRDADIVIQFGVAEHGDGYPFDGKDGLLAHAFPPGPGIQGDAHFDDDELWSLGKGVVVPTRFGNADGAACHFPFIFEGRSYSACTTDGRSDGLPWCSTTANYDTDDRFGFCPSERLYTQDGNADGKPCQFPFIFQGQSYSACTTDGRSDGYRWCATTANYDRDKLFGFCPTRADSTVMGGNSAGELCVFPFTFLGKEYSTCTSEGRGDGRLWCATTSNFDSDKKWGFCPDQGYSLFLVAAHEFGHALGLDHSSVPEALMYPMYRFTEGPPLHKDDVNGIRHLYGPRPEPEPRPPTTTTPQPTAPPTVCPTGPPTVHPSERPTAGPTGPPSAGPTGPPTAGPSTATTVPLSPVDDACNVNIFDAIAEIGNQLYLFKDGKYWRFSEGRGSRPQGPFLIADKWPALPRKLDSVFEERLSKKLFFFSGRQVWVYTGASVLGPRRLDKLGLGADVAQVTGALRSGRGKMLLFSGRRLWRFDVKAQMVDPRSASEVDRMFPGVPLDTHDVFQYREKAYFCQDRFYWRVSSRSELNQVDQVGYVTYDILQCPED
Outline: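 MMP-9 proenzyme purified from transfected HT1080 cell media, activated with APMA or trypsin. Compound dilutions in pH 7.5 Tris/NaCl/CaCl2 buffer with 0.05% polyoxyethylene 23 lauryl ether, incubated at room temperature with 4 μM MCA/Dpa substrate I. IC50 from fluorescence loss (ex 328, em 415 nm) versus inhibitor concentration.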

Human recombinant MMP-2 = target: T3, Human recombinant MMP-2 (Homo sapiens, UniProt P08253)
T3 construct: made in house; host or cells: MMP-2-transfected p2AHT2 cells
T3 sequence (P08253 110-660): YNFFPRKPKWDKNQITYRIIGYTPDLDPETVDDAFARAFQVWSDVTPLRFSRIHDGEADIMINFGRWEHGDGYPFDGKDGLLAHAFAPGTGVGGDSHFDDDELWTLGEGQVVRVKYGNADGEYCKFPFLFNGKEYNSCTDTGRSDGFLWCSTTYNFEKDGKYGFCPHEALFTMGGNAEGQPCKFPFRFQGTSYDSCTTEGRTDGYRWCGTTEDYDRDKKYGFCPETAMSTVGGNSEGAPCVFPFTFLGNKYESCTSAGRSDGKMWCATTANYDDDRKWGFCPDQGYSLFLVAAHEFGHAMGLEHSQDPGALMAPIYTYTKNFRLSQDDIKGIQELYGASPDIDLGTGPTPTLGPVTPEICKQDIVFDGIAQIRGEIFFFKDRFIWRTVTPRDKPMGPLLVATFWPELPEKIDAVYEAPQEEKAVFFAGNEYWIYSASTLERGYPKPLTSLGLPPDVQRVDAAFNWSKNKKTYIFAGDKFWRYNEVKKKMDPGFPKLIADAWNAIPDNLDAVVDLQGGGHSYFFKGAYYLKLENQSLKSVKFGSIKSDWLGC
Outline: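 APMA- or trypsin-activated recombinant MMP-2 was incubated at room temperature with serial inhibitor dilutions in Tris buffer pH 7.5 (100 mM NaCl, 10 mM CaCl2, 0.05% Brij), with DMSO from 1% stocks, and 4 μM substrate I. Cleavage was read by fluorescence at 328/415 nm; IC50 was taken from the loss of fluorescence versus inhibitor concentration.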

Human recombinant MMP-13 = target: T4, Human recombinant MMP-13 (Homo sapiens, UniProt P45452)
T4 construct: made in house; host or cells: baculovirus / insect cells
Outline: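 Fluorescence at 415 nm (excitation 328 nm) reports Gly-Leu cleavage of 4 μM quenched methoxycoumarin peptide substrate I. Human recombinant MMP-13, activated by trypsin or APMA, was incubated at room temperature with varied inhibitor concentrations in pH 7.5 Tris/NaCl/CaCl2 buffer; IC50 derived from reduced fluorescence.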

Human recombinant MMP-1 = target: T5, Human recombinant MMP-1 (Homo sapiens, UniProt P03956)
T5 construct: made in house; host or cells: MMP-1-transfected HT-1080 cells (spent media)
T5 sequence (P03956 100-469): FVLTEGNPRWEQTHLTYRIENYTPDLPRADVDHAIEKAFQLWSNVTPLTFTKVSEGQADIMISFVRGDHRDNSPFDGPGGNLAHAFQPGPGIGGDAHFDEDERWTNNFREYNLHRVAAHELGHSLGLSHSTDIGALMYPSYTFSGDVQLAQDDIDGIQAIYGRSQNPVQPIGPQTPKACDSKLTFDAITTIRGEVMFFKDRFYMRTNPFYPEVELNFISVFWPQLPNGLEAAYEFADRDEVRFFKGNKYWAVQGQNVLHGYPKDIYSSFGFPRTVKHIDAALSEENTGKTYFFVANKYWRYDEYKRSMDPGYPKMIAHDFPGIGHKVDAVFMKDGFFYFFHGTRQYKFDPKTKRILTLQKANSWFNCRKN
Outline: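 APMA- or trypsin-activated enzyme, purified from spent media of transfected HT-1080 cells, incubated at room temperature with 4 μM MCA-Pro-Leu-Gly-Leu-Dpa-Ala-Arg-NH2 and graded inhibitor in Tris buffer pH 7.5 (10 mM CaCl2, 0.05% Brij). Cleavage read by fluorescence (ex 328/em 415 nm); IC50 from fluorescence reduction versus inhibitor concentration.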

[1] = substrate (I) 4 μM, room temperature, values not in parenthesis
[2] = value outside parentheses (Ki in parenthesis)

SMILES	IC50 (Human recombinant MMP-14; value outside parenthesis)	IC50 (Human recombinant MMP-9; value outside parenthesis)	IC50 (Human recombinant MMP-2; value outside parenthesis)	IC50 (Human recombinant MMP-13; value outside parenthesis)	IC50 (Human recombinant MMP-1; value outside parenthesis)	IC50 (Human recombinant MMP-14; [2])	IC50 (Human recombinant MMP-9; [2])	IC50 (Human recombinant MMP-2; [2])	IC50 (Human recombinant MMP-13; [2])	IC50 (Human recombinant MMP-1; [2])	other results
COc1ccc(-c2coc(CCCOc3ccc(S(=O)(=O)C4(C(=O)NO)CCOCC4)cc3)n2)cc1 [Example 30, tetrahydro-N-hydroxy-4-[[4-[3-[4-(4-methoxyphenyl)-2-oxazolyl]propoxy]phenyl]sulfonyl]-2Hpyran-4-carboxamide]											IC50 (Human recombinant MMP-14; [1]): > 10000 nM; IC50 (Human recombinant MMP-9; [1]): 809 nM; IC50 (Human recombinant MMP-2; [1]): 22.6 nM; IC50 (Human recombinant MMP-13; [1]): 1.3 nM; IC50 (Human recombinant MMP-1; [1]): > 10000 nM
O=C(NO)C1(S(=O)(=O)c2ccc(OCCCS(=O)(=O)NC34CC5CC(CC(C5)C3)C4)cc2)CCOCC1 [Example 645]											IC50 (Human recombinant MMP-14; value outside parentheses): > 10000 nM; IC50 (Human recombinant MMP-9; value outside parentheses): 1730 nM; IC50 (Human recombinant MMP-2; value outside parentheses): 22.9 nM; IC50 (Human recombinant MMP-13; value outside parentheses): 4.3 nM; IC50 (Human recombinant MMP-1; value outside parentheses): 9280 nM
O=C(NO)C1(S(=O)(=O)c2ccc(OCCCSc3nc4cc(Cl)ccc4s3)cc2)CCOCC1 [Example 284]	> 10000 nM	18.5 nM	10.1 nM	1.1 nM	> 10000 nM						
O=C1c2ccccc2CN1CCCOc1ccc(S(=O)(=O)C2(C(=O)NO)CCOCC2)cc1 [Example 22, 4-[[4-[3-(1,3-dihydro-1-oxo-2H-isoindol-2-yl)propoxy]phenyl]sulfonyl]tetrahydro-N-hydroxy-2H-pyran-4-carboxamide]											IC50 (Human recombinant MMP-14; [1]): > 10000 nM; IC50 (Human recombinant MMP-9; [1]): > 10000 nM; IC50 (Human recombinant MMP-2; [1]): 1000 nM; IC50 (Human recombinant MMP-13; [1]): 4.9 nM; IC50 (Human recombinant MMP-1; [1]): > 10000 nM
O=C(NO)C1(S(=O)(=O)c2ccc(OCCCOc3ccc(C(F)(F)F)cc3)cc2)CCN(C2CC2)CC1 [Example 319]						4220 nM	258 nM	5.8 nM	1 nM	> 10000 nM	
O=C(CCCCOc1ccc(S(=O)(=O)C2(C(=O)NO)CCOCC2)cc1)c1ccccc1 [Example 326]						8320 nM	263 nM	7.4 nM	0.3 nM	> 10000 nM	
O=C(NO)C1(S(=O)(=O)c2ccc(OCCCCN3CCc4ccccc4C3)cc2)CCOCC1 [Example 334]						2880 nM	866 nM	16.4 nM	5.1 nM	> 10000 nM	
COC(=O)CCCOc1ccc(S(=O)(=O)C2(C(=O)NO)CCOCC2)cc1 [Example 274]	> 10000 nM	33.6 nM	15.4 nM	4.1 nM	9860 nM						
COc1ccc(C(=O)CCCc2ccc(S(=O)(=O)C3(C(=O)NO)CCOCC3)cc2)cc1 [Example 231]	642 nM	10.2 nM	1.6 nM	0.2 nM	> 10000 nM						
O=C(NO)C1(S(=O)(=O)c2ccc(OCCCS(=O)(=O)N3CCc4ccccc4C3)cc2)CCOCC1 [Example 332]						> 10000 nM	132 nM	3.6 nM	2.6 nM	2460 nM	
COc1ccc(C(=O)NCCCOc2ccc(S(=O)(=O)C3(C(=O)NO)CCN(C4CC4)CC3)cc2)cc1 [Example 18, 1-cyclopropyl-N-hydroxy-4-[[4-[3[(4-methoxybenzoyl)amino]propoxy]phenyl]sulfonyl]-4-piperidinecarboxamide, Monohydrochloride]											IC50 (Human recombinant MMP-14; [1]): > 10000 nM; IC50 (Human recombinant MMP-9; [1]): 6000 nM; IC50 (Human recombinant MMP-2; [1]): 537 nM; IC50 (Human recombinant MMP-13; [1]): 1.8 nM; IC50 (Human recombinant MMP-1; [1]): > 10000 nM
CCN1CCC(C(=O)NO)(S(=O)(=O)c2ccc(OCCCc3cccc(-c4ccc(F)cc4)c3)cc2)CC1 [Example 138]	> 10000 nM	1900 nM	247 nM	2.1 nM	> 10000 nM						
O=C(OCCCCOc1ccc(S(=O)(=O)C2(C(=O)NO)CCOCC2)cc1)N1CCc2ccccc2C1 [Example 34]											IC50 (Human recombinant MMP-14; [1]): > 10000 nM; IC50 (Human recombinant MMP-9; [1]): > 10000 nM; IC50 (Human recombinant MMP-2; [1]): 36.6 nM; IC50 (Human recombinant MMP-13; [1]): 3 nM; IC50 (Human recombinant MMP-1; [1]): 429 nM
O=C1CN(c2ccc(OC(F)(F)F)cc2)C(=O)N1CCCOc1ccc(S(=O)(=O)C2(C(=O)NO)CCOCC2)cc1 [Example 144]	> 10000 nM	5990 nM	239 nM	2.5 nM	> 10000 nM						
Cc1cc(C(=O)CCCCOc2ccc(S(=O)(=O)C3(C(=O)NO)CCOCC3)cc2)ccc1OC(C)C [Example 340]						> 10000 nM	5590 nM	253 nM	1.9 nM	> 10000 nM	
O=C(CCCCOc1ccc(S(=O)(=O)C2(C(=O)NO)CCOCC2)cc1)c1ccc2ccccc2c1 [Example 489]						> 10000 nM	> 10000 nM	58.2 nM	0.4 nM	> 10000 nM	
NCc1ccc(OCCOc2ccc(S(=O)(=O)C3(C(=O)NO)CCOCC3)cc2)cc1 [Example 650]											IC50 (Human recombinant MMP-14; value outside parentheses): 2390 nM; IC50 (Human recombinant MMP-9; value outside parentheses): 2.46 nM; IC50 (Human recombinant MMP-2; value outside parentheses): 1.1 nM; IC50 (Human recombinant MMP-13; value outside parentheses): 2.45 nM; IC50 (Human recombinant MMP-1; value outside parentheses): 2880 nM

Now from value to molecule, other results behind:

IC50 (Human recombinant MMP-14; value outside parenthesis)	IC50 (Human recombinant MMP-9; value outside parenthesis)	IC50 (Human recombinant MMP-2; value outside parenthesis)	IC50 (Human recombinant MMP-13; value outside parenthesis)	IC50 (Human recombinant MMP-1; value outside parenthesis)	IC50 (Human recombinant MMP-14; [2])	IC50 (Human recombinant MMP-9; [2])	IC50 (Human recombinant MMP-2; [2])	IC50 (Human recombinant MMP-13; [2])	IC50 (Human recombinant MMP-1; [2])	SMILES	other results
> 10000 nM	1470 nM	410 nM	5.7 nM	> 10000 nM						COc1ccccc1-c1nnc(CCCOc2ccc(S(=O)(=O)C3(C(=O)NO)CCOCC3)cc2)o1 [Example 220]	
> 10000 nM	1700 nM	118 nM	3 nM	> 10000 nM						O=C(NO)C1(S(=O)(=O)c2ccc(OCCCc3nnc(CC4CCCCC4)o3)cc2)CCOCC1 [Example 262]	
> 10000 nM	2030 nM	170 nM	1.5 nM	> 10000 nM						COc1cccc(-c2nnc(CCCOc3ccc(S(=O)(=O)C4(C(=O)NO)CCOCC4)cc3)o2)c1 [Example 280]	
					320 nM	9.1 nM	0.2 nM	< 0.1 nM	3660 nM	COc1ccc(CC(=O)CCCOc2ccc(S(=O)(=O)C3(C(=O)NO)CCOCC3)cc2)cc1 [Example 301]	
					> 10000 nM	> 10000 nM	> 10000 nM	40 nM	> 10000 nM	COc1ccc(C(=O)NCC(C)(C)COc2ccc(S(=O)(=O)C3(C(=O)NO)CCOCC3)cc2)cc1 [Example 392]	
					3620 nM	1070 nM	17.4 nM	1.1 nM	> 10000 nM	CC(C)(C)c1ccc(C(=O)CCCOc2ccc(S(=O)(=O)C3(C(=O)NO)CCOCC3)cc2)cc1 [Example 355]	
					832 nM	116 nM	9 nM	2.7 nM	3080 nM	O=C(NO)C1(S(=O)(=O)c2ccc(OCCCOc3ccc4ccccc4c3)cc2)CCOCC1 [Example 448]	
> 10000 nM	6230 nM	174 nM	0.5 nM	> 10000 nM						O=C(NO)C1(S(=O)(=O)c2ccc(OCCCc3nnc(-c4ccc(-c5ccccc5)cc4)o3)cc2)CCOCC1 [Example 257]	
> 10000 nM	494 nM	208 nM	3.7 nM	> 10000 nM						CC(C)(C)c1ccc(-c2nnc(CCCOc3ccc(S(=O)(=O)C4(C(=O)NO)CCOCC4)cc3)o2)cc1 [Example 278]	
					4940 nM	44 nM	6.6 nM	0.9 nM	> 10000 nM	COc1ccc(OCCCCOc2ccc(S(=O)(=O)C3(C(=O)NO)CCOCC3)cc2)cc1 [Example 450]	
